Data on one molecule can be found in patent US20240190866A1, “POLYHYDROXYLATED INDOLIZIDINE AND PYRROLIZIDINE DERIVATIVES AND USES THEREOF” (Academia Sinica, priority 2021, published 2024).

Assay [1] addresses human lysosomal α-mannosidase (α-hLM) (Homo sapiens (Human), UniProt O00754). The assay can be described thus: α-Mannosidase (α-hLM) activity assay, 4-MU-α-D-mannopyranoside substrate. Conditions: pH 4.6, 37° C., 1 h. It is filed as biochemical. The procedure:
Compounds were diluted to give the final concentration of 100 μM and mixed with 4-MU-α-D-mannopyranoside as substrate and human Golgi α-mannosidase II in phosphate buffer (0.1 M Sodium phosphate dibasic, pH 7.0) or human lysosomal α-mannosidase in citric phosphate buffer (0.1 M Sodium phosphate monobasic monohydrate, 0.5 mM citric acid monohydrate, pH 4.6). The assay was carried out at 37° C. for a certain time (1 h for α-hLM, 2 h for α-hGMII). Stop solution (0.5 M K2CO3(aq), pH 10.8) was then added to the reactions and the fluorescence was determined at 355 nm excitation and 460 nm emission (SpectraMax M5, Molecular Devices). Inhibition was performed as relative enzyme activity to control. The active compounds were selected for libraries preparation and further tested at lower concentration to determine their IC50 values. The assays performed in 384-wells of the microtiter plates.

In assay [2] the test system is HepG2 cells. Kind of assay: Anti-proliferative activity assay (MTT). In kind it is cell-based, human. Conditions: 72 h. The procedure: (§1) Human liver cancer HepG2 cells and Huh7 cells, breast cancer MDA-MB-231 cells, pancreatic cancer PANC-1 cells, and non-small cell lung (NSCL) cancer H1975 cells were maintained in Dulbecco's Modified Eagle Medium supplemented containing 10% fetal bovine serum (FBS), 100 units/ml penicillin and […] streptomycin in 37° C. incubator with 5% CO2.
(§2) Anti-proliferative activity of HepG2, Huh7 or PANC-1 cells was determined by 3-(4,5-dimethylthiazol-2-yl)-2,5-diphenyltetrazolium bromide (MTT) assay, while that of H1975 or MDA-MB-231 cells was determined by luminescent assay with the aid of commercial kit CellTiter-Glo® (Promega).
(§3) Cancer cells including HepG2, Huh7 and PANC-1 cells were respectively seeded at 10^4, 4×10^3, and 5×10^3 cells/well in 96-well plates and maintained for 14-16 hours. Cells were treated with dimethylsulfoxide (DMSO) or test compounds in varied concentrations for 72 h. Cells were then washed with PBS twice, added a medium containing 3-(4,5-dimethylthiazol-2-yl)-2,5-diphenyltetrazolium bromide (MTT) at a final concentration of 0.5 mg/mL, and incubated for 4 h at 37° C. in a humidified incubator containing 5% CO2 in air. Cells having functional succinate dehydrogenase of mithchondria would convert MTT to formazan. Then, the medium was replaced with 100 μL of DMSO for 30 min at room temperature, and the 96-well plate was read by an ELISA reader at 550 nm to get the absorbance density values. The IC50 values of death cell lines were calculated accordingly.

Assay [3] has as its system Huh7 cells. Kind of assay: Anti-proliferative activity assay (MTT). In kind it is cell-based, human. The following applies: 72 h. How it is done:
as §1, §2, §3

Assay [4] deals with PANC-1 cells. Kind of assay: Anti-proliferative activity assay (MTT). Conditions: 72 h. In kind it is cell-based, human. The procedure:
as §1, §2, §3

Assay [5] deals with Huh7 cells. The assay can be described thus: Surface binding of lectin by fluorescence microscopy. The following applies: Huh7, 10 μM, 48 h. It is filed as cell-based, human.
Assay [6] has as its system HepG2 cells. The assay can be described thus: Transwell migration assay. In kind it is cell-based, human. Conditions: 18 hours. The procedure: (§4) Chemotaxis experiments with human HepG2Huh7, or PANC-1 cells were assayed by using transwells (Millipore). The cells to be analyzed (5×10^4 cells/well) were seeded in the upper chambers of the 24-well plate in 400 μL serum-free medium. FBS (10%) was used as the chemoattractant with or without different concentrations of the test compound (e.g., ACK900, ACK901, ACK902) in the lower chamber, and the plate was incubated under standard conditions. After incubation for 18 hours, the media in the upper chambers were aspirated and washed with phosphate-buffered saline (PBS) twice. Both non-migrated and migrated cells were fixed with 4% paraformaldehyde (PFA) for 30 minutes at room temperature, stained with 2% crystal violet solution. The non-invading cells were removed from the upper surface of the insert membrane with a cotton swab. The images were taken using an imaging reader (Cytation 5, BioTek, VT, U.S.A.) and analyzed using NIH ImageJ software. Percent in the results represent percent of initial number of cells in the migrating and nonmigrating Cell fractions.

Assay [7] relates to Huh7 cells. Kind of assay: Transwell migration assay. In kind it is cell-based, human. Conditions: 18 hours. How it is done:
as §4

Assay [8] deals with PANC-1 cells. The assay can be described thus: Transwell migration assay. It is filed as cell-based, human. Conditions: PANC-1, transwell, 18 hours. The procedure:
as §4

Assay [9] has as its system HepG2 cells. Kind of assay: Transwell invasion assay. It is filed as cell-based, human. The procedure: as §4
In assay [10] the test system is Huh7 cells. The assay can be described thus: Transwell invasion assay. It is filed as cell-based, human. How it is done: as §4
The test system of assay [11] is PANC-1 cells. Kind of assay: Transwell invasion assay. The following applies: PANC-1, transwell. It is filed as cell-based, human. How it is done: as §4

Chain of human lysosomal α-mannosidase (α-hLM) (O00754 50-1011): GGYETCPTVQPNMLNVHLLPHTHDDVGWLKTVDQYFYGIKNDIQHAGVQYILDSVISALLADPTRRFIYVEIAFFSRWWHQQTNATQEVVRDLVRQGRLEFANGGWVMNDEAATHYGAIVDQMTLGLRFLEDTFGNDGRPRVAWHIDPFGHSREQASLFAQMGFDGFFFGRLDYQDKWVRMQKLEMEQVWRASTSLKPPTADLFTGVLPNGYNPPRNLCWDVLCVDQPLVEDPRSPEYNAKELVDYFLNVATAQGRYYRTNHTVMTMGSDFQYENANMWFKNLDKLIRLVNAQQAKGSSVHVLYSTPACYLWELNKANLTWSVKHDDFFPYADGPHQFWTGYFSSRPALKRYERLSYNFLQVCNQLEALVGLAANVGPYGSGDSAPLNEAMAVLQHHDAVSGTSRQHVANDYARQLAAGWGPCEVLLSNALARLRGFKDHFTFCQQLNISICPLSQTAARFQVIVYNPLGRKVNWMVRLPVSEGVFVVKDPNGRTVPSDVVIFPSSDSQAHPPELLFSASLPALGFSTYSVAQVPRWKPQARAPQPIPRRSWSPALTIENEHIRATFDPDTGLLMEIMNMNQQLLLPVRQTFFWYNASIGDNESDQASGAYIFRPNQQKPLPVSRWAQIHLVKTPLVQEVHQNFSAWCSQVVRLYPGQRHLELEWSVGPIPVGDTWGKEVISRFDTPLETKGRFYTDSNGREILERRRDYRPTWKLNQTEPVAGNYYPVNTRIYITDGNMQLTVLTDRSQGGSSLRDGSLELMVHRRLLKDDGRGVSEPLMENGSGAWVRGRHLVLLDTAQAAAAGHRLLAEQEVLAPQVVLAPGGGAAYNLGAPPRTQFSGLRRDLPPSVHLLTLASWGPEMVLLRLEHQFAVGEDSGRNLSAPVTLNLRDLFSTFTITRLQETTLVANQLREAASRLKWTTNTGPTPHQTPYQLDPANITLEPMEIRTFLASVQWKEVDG

Usually IC50 stands for the concentration that inhibits the measured activity by half. With `CCC[C@H]1CC[C@H](c2ccc(NC(=S)NC[C@@H]3[C@@H](O)[C@@H](O)[C@H]4[C@H](O)CCCN43)cc2)CC1` [ACK900], the IC50 in assay [1] came out at 14 µM; in [2], 5.9 µM; in assay [3], 7.8 µM; in [4] it was 14.5 µM. Moreover, the “surface binding of Concanavalin A (ConA)” value in [5] is recorded as “markedly increased”. Further, in [5], the “surface binding of galectin-1 (Gal1)” value was “substantially decreased”. Also, the migratory capability entry in assay [6], in assay [7] and in [8] was “remarkably decreased” in each case. The invasive capability entry in assay [9], in assay [10] and in [11] was “remarkably decreased” each time.
